Reference: patent publication US9708312B2, “Dihydropyrimidinoisoquinolinones and pharmaceutical compositions thereof for the treatment of inflammatory disorders (GPR84 antagonists)” (GALAPAGOS NV, priority 2012, dated 2017)

Biological target: T1, GPR84 (Homo sapiens, UniProt Q9NQS5)
T1 construct: expressed in transfected cells
Experiment: GPR84 [35S]GTPγS binding assay, HEPES buffer
Format: biochemical
Settings: 3,3′ di indolylmethane at EC80, membranes from stable cell line over expressing GPR84
Description: 1.1. Cell Based Assay: GTp-γ S Binding Assay.
The following assay can be used for determination of GPR84 activation.
The assay is performed in a 96 well plate where the following reagents are added. […] In a last step, 30 μL of a mixture consisting of membranes-GTPγS-SpA beads is added [mixture consists of 20 μg/well membranes derived from stable cell line over expressing GPR84 (membranes are pre-incubated with 0.1 μM GDP for 15 min at 4° C.), 0.1 nM [^35S]GTPγS (Perkin Elmer, NEG030) and 0.5 mg/well PVT-WGA SpA beads (Perkin Elmer, RPNQ0001)]. All components are diluted in assay buffer containing 20 mM HEPES pH 7.4; 5 mM MgCl2; 250 mM NaCl; 0.05% BSA; 75 ug/mL saponin Reactions are incubated for 90 min at room temperature followed by centrifugation at 2000 rpm during 15 min. Plates are read on a Topcount reader (Perkin Elmer) immediately after centrifugation (readout time, 1 min/well).

T1 sequence (Q9NQS5 whole entry): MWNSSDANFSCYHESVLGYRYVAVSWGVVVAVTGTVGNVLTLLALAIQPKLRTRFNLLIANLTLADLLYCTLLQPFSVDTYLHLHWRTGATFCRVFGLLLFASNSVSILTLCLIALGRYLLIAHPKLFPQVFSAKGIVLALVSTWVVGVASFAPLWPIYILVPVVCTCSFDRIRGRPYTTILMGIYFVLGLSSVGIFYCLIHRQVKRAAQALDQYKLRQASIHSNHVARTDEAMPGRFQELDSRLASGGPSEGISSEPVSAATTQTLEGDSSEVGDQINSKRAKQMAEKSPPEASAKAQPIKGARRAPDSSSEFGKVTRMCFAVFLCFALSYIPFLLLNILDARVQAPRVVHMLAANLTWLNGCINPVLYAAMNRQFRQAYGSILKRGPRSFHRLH

Row | Structure (SMILES) | IC50 [nM]
1 | COc1ncccc1-c1ccc2c(c1)CCn1c-2cc(OCC2COc3ncccc3O2)nc1=O (stereo not drawn) [compound 145, 2-(2,3-dihydro-[1,4]dioxino[2,3-b]pyridin-2-ylmethoxy)-9-(2-methoxy-pyridin-3-yl)-6,7-dihydro-pyrimido[6,1-a]isoquinolin-4-one] | 0.01 to 100
2 | O=c1nc(OCC2CCCO2)cc2n1CCc1cc(OCc3ccccn3)ccc1-2 (stereo not drawn) [compound 14, 9-(pyridin-2-ylmethoxy)-2-(tetrahydro-furan-2-ylmethoxy)-6,7-dihydro-pyrimido[6,1-a]isoquinolin-4-one] | 100 to 500
3 | O=C(COc1ccc2c(c1)CCn1c-2cc(OCC2COc3ccccc3O2)nc1=O)Nc1ccccc1 (stereo not drawn) [compound 68, 2-[2-(2,3-dihydro-benzo[1,4]dioxin-2-ylmethoxy)-4-oxo-6,7-dihydro-4H-pyrimido[6,1-a]isoquinolin-9-yloxy]-N-phenyl-acetamide] | 0.01 to 100
4 | O=c1nc(OCC2CCCO2)cc2n1CCc1cc(OCCc3ccccc3)ccc1-2 (stereo not drawn) [compound 12, 9-phenethyloxy-2-(tetrahydro-furan-2-ylmethoxy)-6,7-dihydro-pyrimido[6,1-a]isoquinolin-4-one] | 100 to 500
5 | O=c1nc(OCC2COc3ccccc3O2)cc2n1CCc1cc(OCCCN3CCCCC3)ccc1-2 (stereo not drawn) [compound 81, 2-(2,3-dihydro-benzo[1,4]dioxin-2-ylmethoxy)-9-(3-piperidin-1-yl-propoxy)-6,7-dihydro-pyrimido[6,1-a]isoquinolin-4-one] | 100 to 500
6 | O=c1nc(OCC2COc3ncccc3O2)cc2n1CCc1cc(-c3ccoc3)ccc1-2 (stereo not drawn) [compound 148, 2-(2,3-dihydro-[1,4]dioxino[2,3-b]pyridin-2-ylmethoxy)-9-furan-3-yl-6,7-dihydro-pyrimido[6,1-a]isoquinolin-4-one] | 0.01 to 100
7 | Cn1cc(-c2cccc(COc3ccc4c(c3)CCn3c-4cc(OCC4CCCO4)nc3=O)n2)cn1 (stereo not drawn) [compound 55, 9-[6-(1-methyl-1H-pyrazol-4-yl)-pyridin-2-ylmethoxy]-2-(tetrahydro-furan-2-ylmethoxy)-6,7-dihydro-pyrimido[6,1-a]isoquinolin-4-one] | 100 to 500
8 | O=c1nc(OCC2COc3ncccc3O2)cc2n1CCc1cc(CN3CCOCC3)ccc1-2 (stereo not drawn) [compound 150, 2-(2,3-dihydro-[1,4]dioxino[2,3-b]pyridin-2-ylmethoxy)-9-morpholin-4-ylmethyl-6,7-dihydro-pyrimido[6,1-a]isoquinolin-4-one] | 0.01 to 100
9 | Cc1ccc(COc2ccc3c(c2)CCn2c-3cc(OCC3CCCO3)nc2=O)cc1 (stereo not drawn) [compound 35, 9-(4-methyl-benzyloxy)-2-(tetrahydro-furan-2-ylmethoxy)-6,7-dihydro-pyrimido[6,1-a]isoquinolin-4-one] | 0.01 to 100
10 | O=c1nc(OCC2COc3ncccc3O2)cc2n1CCc1cc(-c3ccncc3)ccc1-2 (stereo not drawn) [compound 97, 2-(2,3-dihydro-[1,4]dioxino[2,3-b]pyridin-2-ylmethoxy)-9-pyridin-4-yl-6,7-dihydro-pyrimido[6,1-a]isoquinolin-4-one] | 0.01 to 100
11 | O=c1nc(OCC2COc3ccccc3O2)cc2n1CCc1cc(OCc3nnnn3C3CC3)ccc1-2 (stereo not drawn) [compound 75, 9-(1-cyclopropyl-1H-tetrazol-5-ylmethoxy)-2-(2,3-dihydro-benzo[1,4]dioxin-2-ylmethoxy)-6,7-dihydro-pyrimido[6,1-a]isoquinolin-4-one] | 0.01 to 100
12 | CC(C)(C)c1nc(COc2ccc3c(c2)CCn2c-3cc(OCC3CCCO3)nc2=O)no1 (stereo not drawn) [compound 87, 9-(5-tert-butyl-[1,2,4]oxadiazol-3-ylmethoxy)-2-(tetrahydro-furan-2-ylmethoxy)-6,7-dihydro-pyrimido[6,1-a]isoquinolin-4-one] | 0.01 to 100
13 | O=c1nc(OCC2COc3ncccc3O2)cc2n1CCc1cc(OCCN3CCOCC3)ccc1-2 (stereo not drawn) [compound 90, 2-(2,3-dihydro-[1,4]dioxino[2,3-b]pyridin-2-ylmethoxy)-9-(2-morpholin-4-yl-ethoxy)-6,7-dihydro-pyrimido[6,1-a]isoquinolin-4-one] | 100 to 500
14 | O=c1nc(OCC2CCCO2)cc2n1CCc1cc(OCc3ccccc3)ccc1-2 (stereo not drawn) [compound 7, 9-benzyloxy-2-(tetrahydro-furan-2-ylmethoxy)-6,7-dihydro-pyrimido[6,1-a]isoquinolin-4-one] | 0.01 to 100
15 | COc1ccccc1-c1ccc2c(c1)CCn1c-2cc(OCC2CCCO2)nc1=O (stereo not drawn) [compound 99, 9-(2-methoxy-phenyl)-2-(tetrahydro-furan-2-ylmethoxy)-6,7-dihydro-pyrimido[6,1-a]isoquinolin-4-one] | 100 to 500
16 | COc1cccc(-c2ccc3c(c2)CCn2c-3cc(OCC3CCCO3)nc2=O)c1 (stereo not drawn) [compound 100, 9-(3-methoxy-phenyl)-2-(tetrahydro-furan-2-ylmethoxy)-6,7-dihydro-pyrimido[6,1-a]isoquinolin-4-one] | 100 to 500
17 | CN1CCN(CCCOc2ccc3c(c2)CCn2c-3cc(OCC3COc4ccccc4O3)nc2=O)CC1 (stereo not drawn) [compound 84, 2-(2,3-dihydro-benzo[1,4]dioxin-2-ylmethoxy)-9-[3-(4-methyl-piperazin-1-yl)-propoxy]-6,7-dihydro-pyrimido[6,1-a]isoquinolin-4-one] | 100 to 500
18 | COc1ccc(OCCOc2ccc3c(c2)CCn2c-3cc(OCC3CCCO3)nc2=O)cc1 (stereo not drawn) [compound 42, 9-[2-(4-methoxy-phenoxy)-ethoxy]-2-(tetrahydro-furan-2-ylmethoxy)-6,7-dihydro-pyrimido[6,1-a]isoquinolin-4-one] | 0.01 to 100
19 | CCN(CC)C(=O)COc1ccc2c(c1)CCn1c-2cc(OCC2COc3ccccc3O2)nc1=O (stereo not drawn) [compound 66, 2-[2-(2,3-dihydro-benzo[1,4]dioxin-2-ylmethoxy)-4-oxo-6,7-dihydro-4H-pyrimido[6,1-a]isoquinolin-9-yloxy]-N,N-diethyl-acetamide] | 100 to 500
20 | O=c1nc(OCC2CCCO2)cc2n1CCc1cc(OCc3ncco3)ccc1-2 (stereo not drawn) [compound 65, 9-(oxazol-2-ylmethoxy)-2-(tetrahydro-furan-2-ylmethoxy)-6,7-dihydro-pyrimido[6,1-a]isoquinolin-4-one] | 500 to 1000
21 | COC(=O)c1ccc(COc2ccc3c(c2)CCn2c-3cc(OCC3CCCO3)nc2=O)cc1 (stereo not drawn) [compound 26, 4-[4-oxo-2-(tetrahydro-furan-2-ylmethoxy)-6,7-dihydro-4H-pyrimido[6,1-a]isoquinolin-9-yloxymethyl]-benzoic acid methyl ester] | 100 to 500

Continued, values first:

Row | IC50 [nM] | Structure (SMILES)
22 | 100 to 500 | CCNC1(C#Cc2ccc3c(c2)CCn2c-3cc(OCC3COc4ncccc4O3)nc2=O)COC1 (stereo not drawn) [compound 201, 2-(2,3-dihydro-[1,4]dioxino[2,3-b]pyridin-2-ylmethoxy)-9-(3-ethylamino-oxetan-3-ylethynyl)-6,7-dihydro-pyrimido[6,1-a]isoquinolin-4-one]
23 | 100 to 500 | CC(C)(N)C#Cc1ccc2c(c1)CCn1c-2cc(OCC2COc3ncccc3O2)nc1=O (stereo not drawn) [compound 178, 9-(3-amino-3-methyl-but-1-ynyl)-2-(2,3-dihydro-[1,4]dioxino[2,3-b]pyridin-2-ylmethoxy)-6,7-dihydro-pyrimido[6,1-a]isoquinolin-4-one]
24 | 100 to 500 | CN(CC#Cc1ccc2c(c1)CCn1c-2cc(OCC2COc3ncccc3O2)nc1=O)Cc1ccccc1 (stereo not drawn) [compound 173, 9-[3-(benzyl-methyl-amino)-prop-1-ynyl]-2-(2,3-dihydro-[1,4]dioxino[2,3-b]pyridin-2-ylmethoxy)-6,7-dihydro-pyrimido[6,1-a]isoquinolin-4-one]
25 | 0.01 to 100 | CC(C)CC(O)C#Cc1ccc2c(c1)CCn1c-2cc(OCC2COc3ncccc3O2)nc1=O (stereo not drawn) [compound 185, 2-(2,3-dihydro-[1,4]dioxino[2,3-b]pyridin-2-ylmethoxy)-9-(3-hydroxy-5-methyl-hex-1-ynyl)-6,7-dihydro-pyrimido[6,1-a]isoquinolin-4-one]
26 | 0.01 to 100 | CN(C)CC#Cc1ccc2c(c1)CCn1c-2cc(OCC2COc3ncccc3O2)nc1=O (stereo not drawn) [compound 172, 2-(2,3-dihydro-[1,4]dioxino[2,3-b]pyridin-2-ylmethoxy)-9-(3-dimethylamino-prop-1-ynyl)-6,7-dihydro-pyrimido[6,1-a]isoquinolin-4-one]
27 | 0.01 to 100 | CCOc1ncccc1-c1ccc2c(c1)CCn1c-2cc(OCC2COc3ncccc3O2)nc1=O (stereo not drawn) [compound 163, 2-(2,3-dihydro-[1,4]dioxino[2,3-b]pyridin-2-ylmethoxy)-9-(2-ethoxy-pyridin-3-yl)-6,7-dihydro-pyrimido[6,1-a]isoquinolin-4-one]
28 | 0.01 to 100 | Cc1nc(COc2ccc3c(c2)CCn2c-3cc(OCC3COc4ncccc4O3)nc2=O)no1 (stereo not drawn) [compound 154, 2-(2,3-dihydro-[1,4]dioxino[2,3-b]pyridin-2-ylmethoxy)-9-(5-methyl-[1,2,4]oxadiazol-3-ylmethoxy)-6,7-dihydro-pyrimido[6,1-a]isoquinolin-4-one]
29 | 100 to 500 | O=C1CN(CC#Cc2ccc3c(c2)CCn2c-3cc(OCC3COc4ncccc4O3)nc2=O)C(=O)N1 (stereo not drawn) [compound 176, 1-{3-[2-(2,3-Dihydro-[1,4]dioxino[2,3-b]pyridin-2-ylmethoxy)-4-oxo-6,7-dihydro-4H-pyrimido[6,1-a]isoquinolin-9-yl]-prop-2-ynyl}-imidazolidine-2,4-dione]
30 | 100 to 500 | NC1(C#Cc2ccc3c(c2)CCn2c-3cc(OCC3COc4ncccc4O3)nc2=O)CCCCC1 (stereo not drawn) [compound 184, 9-(1-amino-cyclohexylethynyl)-2-(2,3-dihydro-[1,4]dioxino[2,3-b]pyridin-2-ylmethoxy)-6,7-dihydro-pyrimido[6,1-a]isoquinolin-4-one]
